Results published in ChEMBL document CHEMBL5465560, “Selectivity Literature for EUbOPEN Chemogenomic Library” (2024).

Columns and labels:
[1] = molecular target: Fibroblast growth factor receptor 2 (Homo sapiens) (UniProt P21802); assay: Selectivity interaction (KinomeScan (DiscoverX)) EUB0000229b FGFR2; conditions: at 10 µM
[2] = molecular target: Glycogen synthase kinase-3 beta (Homo sapiens, UniProt P49841); assay: Selectivity interaction (KinomeScan (DiscoverX)) EUB0000045b GSK3B
[3] = molecular target: T1, Serine/threonine-protein kinase Nek9 (Homo sapiens) (UniProt Q8TD19); assay: Selectivity interaction (KinomeScan (DiscoverX)) EUB0000045b NEK9
T1 sequence (whole entry): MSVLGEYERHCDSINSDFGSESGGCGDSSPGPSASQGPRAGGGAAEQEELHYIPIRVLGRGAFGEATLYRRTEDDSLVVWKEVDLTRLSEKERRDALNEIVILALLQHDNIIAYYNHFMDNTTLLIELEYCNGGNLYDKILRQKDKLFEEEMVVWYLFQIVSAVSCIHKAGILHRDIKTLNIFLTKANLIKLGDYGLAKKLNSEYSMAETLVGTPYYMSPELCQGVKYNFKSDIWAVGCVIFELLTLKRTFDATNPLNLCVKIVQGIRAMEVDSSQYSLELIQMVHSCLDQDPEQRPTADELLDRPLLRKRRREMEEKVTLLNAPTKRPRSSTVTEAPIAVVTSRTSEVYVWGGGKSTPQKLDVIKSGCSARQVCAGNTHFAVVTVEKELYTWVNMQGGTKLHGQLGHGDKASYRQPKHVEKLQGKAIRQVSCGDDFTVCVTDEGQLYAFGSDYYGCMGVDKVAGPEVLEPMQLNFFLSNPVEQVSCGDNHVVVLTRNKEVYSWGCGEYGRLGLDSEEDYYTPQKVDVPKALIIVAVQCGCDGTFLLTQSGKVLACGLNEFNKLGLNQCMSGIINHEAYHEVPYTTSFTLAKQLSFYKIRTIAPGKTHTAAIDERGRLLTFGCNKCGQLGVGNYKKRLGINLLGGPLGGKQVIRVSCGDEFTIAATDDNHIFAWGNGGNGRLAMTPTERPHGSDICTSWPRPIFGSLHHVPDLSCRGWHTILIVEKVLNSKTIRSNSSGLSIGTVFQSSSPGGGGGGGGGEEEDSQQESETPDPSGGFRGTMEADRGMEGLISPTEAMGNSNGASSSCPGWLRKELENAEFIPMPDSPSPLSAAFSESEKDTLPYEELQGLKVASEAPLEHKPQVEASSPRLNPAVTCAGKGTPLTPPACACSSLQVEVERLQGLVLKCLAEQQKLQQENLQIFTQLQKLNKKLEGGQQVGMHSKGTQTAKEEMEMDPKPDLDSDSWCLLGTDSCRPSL

[4] = molecular target: Phosphatidylinositol 4-phosphate 3-kinase C2 domain-containing subunit beta (Homo sapiens) (UniProt O00750); assay: Selectivity interaction (KinomeScan (DiscoverX)) EUB0001619a PIK3C2B; conditions: at 1 µM
[5] = molecular target: Fibroblast growth factor receptor 3 (Homo sapiens, UniProt P22607); assay: Selectivity interaction (Kinase panel (DSF assay)) EUB0001558a FGFR3
[6] = molecular target: Mitogen-activated protein kinase 4 (Homo sapiens) (UniProt P31152); assay: Selectivity interaction (KinomeScan (DiscoverX)) EUB0000618a MAPK4; conditions: at 10 µM
[7] = molecular target: Wee1-like protein kinase 2 (Homo sapiens) (UniProt P0C1S8); assay: Selectivity interaction (KinomeScan (DiscoverX)) EUB0000618a WEE2; conditions: at 10 µM
[8] = molecular target: Cyclin-dependent kinase 9 (Homo sapiens, UniProt P50750); assay: Selectivity interaction (ActivX KiNativ screen (kinase selectivity in THP-1 cell lysates)) EUB0000639a CDK9; assay type: subcellular; conditions: lysate
[9] = molecular target: T2, Ribosomal protein S6 kinase delta-1 (Homo sapiens) (UniProt Q96S38); assay: Selectivity interaction (ActivX KiNativ screen (kinase selectivity in THP-1 cell lysates)) EUB0000639a RPS6KC1; assay type: subcellular; conditions: lysate
T2 sequence (whole entry): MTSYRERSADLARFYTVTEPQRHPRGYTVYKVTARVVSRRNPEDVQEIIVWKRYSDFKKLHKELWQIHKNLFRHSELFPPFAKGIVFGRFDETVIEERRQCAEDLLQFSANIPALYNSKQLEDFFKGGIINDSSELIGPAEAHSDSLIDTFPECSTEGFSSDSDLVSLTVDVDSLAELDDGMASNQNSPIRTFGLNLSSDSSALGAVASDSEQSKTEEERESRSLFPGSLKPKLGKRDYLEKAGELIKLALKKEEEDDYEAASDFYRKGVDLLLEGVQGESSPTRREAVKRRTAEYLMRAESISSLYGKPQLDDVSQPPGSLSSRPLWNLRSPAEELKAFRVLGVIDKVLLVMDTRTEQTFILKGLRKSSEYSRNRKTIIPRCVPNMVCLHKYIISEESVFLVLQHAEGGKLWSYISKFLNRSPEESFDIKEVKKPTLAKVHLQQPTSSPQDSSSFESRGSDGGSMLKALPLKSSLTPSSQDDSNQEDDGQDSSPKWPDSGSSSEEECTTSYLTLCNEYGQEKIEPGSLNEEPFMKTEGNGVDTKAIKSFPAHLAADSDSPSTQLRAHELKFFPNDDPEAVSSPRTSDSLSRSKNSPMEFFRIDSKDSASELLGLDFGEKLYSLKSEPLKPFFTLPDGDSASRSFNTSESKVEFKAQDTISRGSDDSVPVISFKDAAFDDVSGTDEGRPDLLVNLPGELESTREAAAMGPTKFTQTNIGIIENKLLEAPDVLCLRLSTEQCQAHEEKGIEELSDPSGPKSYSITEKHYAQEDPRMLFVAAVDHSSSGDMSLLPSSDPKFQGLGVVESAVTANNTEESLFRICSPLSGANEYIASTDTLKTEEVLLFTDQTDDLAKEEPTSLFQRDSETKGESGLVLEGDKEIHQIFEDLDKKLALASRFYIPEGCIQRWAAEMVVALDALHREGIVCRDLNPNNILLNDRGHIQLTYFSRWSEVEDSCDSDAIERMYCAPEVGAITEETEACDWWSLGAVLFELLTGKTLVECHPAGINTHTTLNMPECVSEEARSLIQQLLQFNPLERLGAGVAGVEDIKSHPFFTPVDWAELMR

[10] = molecular target: Serine/threonine-protein kinase tousled-like 2 (Homo sapiens) (UniProt Q86UE8); conditions: at 10 µM
Serine/threonine-protein kinase tousled-like 2 (Homo sapiens), sequence (Q86UE8 whole entry, looked up): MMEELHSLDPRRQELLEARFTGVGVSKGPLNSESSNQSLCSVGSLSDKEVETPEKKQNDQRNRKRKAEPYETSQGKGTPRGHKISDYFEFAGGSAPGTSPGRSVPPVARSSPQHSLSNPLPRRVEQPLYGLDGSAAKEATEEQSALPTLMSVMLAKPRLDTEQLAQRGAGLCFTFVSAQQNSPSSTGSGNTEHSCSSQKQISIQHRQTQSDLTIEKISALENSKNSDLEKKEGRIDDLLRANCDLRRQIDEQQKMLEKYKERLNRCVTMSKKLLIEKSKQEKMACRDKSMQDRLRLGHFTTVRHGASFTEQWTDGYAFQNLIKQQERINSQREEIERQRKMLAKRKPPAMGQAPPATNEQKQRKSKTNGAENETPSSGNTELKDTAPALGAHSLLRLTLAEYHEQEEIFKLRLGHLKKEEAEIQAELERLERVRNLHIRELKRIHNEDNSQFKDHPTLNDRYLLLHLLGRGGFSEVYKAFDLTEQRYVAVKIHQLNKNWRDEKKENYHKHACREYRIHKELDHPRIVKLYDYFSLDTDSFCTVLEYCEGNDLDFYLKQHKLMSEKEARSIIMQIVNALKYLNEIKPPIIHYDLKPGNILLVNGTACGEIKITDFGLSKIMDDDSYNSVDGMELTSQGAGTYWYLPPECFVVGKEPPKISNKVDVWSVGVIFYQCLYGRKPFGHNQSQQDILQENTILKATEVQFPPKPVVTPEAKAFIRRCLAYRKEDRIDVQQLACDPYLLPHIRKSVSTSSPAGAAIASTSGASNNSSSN

Cyclin-dependent kinase 9, sequence (P50750 whole entry): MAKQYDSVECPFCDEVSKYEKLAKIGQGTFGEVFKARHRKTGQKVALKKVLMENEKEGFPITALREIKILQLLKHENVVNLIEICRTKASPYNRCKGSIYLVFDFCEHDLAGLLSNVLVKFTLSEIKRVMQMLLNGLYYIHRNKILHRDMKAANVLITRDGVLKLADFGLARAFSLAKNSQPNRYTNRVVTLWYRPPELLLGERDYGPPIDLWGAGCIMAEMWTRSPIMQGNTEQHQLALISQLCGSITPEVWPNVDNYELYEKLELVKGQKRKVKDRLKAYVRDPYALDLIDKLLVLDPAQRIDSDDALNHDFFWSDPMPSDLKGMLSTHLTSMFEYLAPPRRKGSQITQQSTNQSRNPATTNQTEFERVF
Glycogen synthase kinase-3 beta, sequence (P49841 whole entry, looked up): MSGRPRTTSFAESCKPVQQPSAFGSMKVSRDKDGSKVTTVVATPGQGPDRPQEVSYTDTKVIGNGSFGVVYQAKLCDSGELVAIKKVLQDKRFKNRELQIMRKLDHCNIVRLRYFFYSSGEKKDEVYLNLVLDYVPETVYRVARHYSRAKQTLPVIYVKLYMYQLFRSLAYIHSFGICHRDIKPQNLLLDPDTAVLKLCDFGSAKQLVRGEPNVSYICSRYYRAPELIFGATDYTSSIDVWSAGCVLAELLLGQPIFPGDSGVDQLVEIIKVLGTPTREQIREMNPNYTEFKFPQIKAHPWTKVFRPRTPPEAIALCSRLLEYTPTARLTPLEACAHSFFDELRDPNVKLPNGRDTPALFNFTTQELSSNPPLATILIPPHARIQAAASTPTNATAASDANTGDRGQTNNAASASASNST
Fibroblast growth factor receptor 2 (Homo sapiens), sequence (P21802 22-821 limits assumed): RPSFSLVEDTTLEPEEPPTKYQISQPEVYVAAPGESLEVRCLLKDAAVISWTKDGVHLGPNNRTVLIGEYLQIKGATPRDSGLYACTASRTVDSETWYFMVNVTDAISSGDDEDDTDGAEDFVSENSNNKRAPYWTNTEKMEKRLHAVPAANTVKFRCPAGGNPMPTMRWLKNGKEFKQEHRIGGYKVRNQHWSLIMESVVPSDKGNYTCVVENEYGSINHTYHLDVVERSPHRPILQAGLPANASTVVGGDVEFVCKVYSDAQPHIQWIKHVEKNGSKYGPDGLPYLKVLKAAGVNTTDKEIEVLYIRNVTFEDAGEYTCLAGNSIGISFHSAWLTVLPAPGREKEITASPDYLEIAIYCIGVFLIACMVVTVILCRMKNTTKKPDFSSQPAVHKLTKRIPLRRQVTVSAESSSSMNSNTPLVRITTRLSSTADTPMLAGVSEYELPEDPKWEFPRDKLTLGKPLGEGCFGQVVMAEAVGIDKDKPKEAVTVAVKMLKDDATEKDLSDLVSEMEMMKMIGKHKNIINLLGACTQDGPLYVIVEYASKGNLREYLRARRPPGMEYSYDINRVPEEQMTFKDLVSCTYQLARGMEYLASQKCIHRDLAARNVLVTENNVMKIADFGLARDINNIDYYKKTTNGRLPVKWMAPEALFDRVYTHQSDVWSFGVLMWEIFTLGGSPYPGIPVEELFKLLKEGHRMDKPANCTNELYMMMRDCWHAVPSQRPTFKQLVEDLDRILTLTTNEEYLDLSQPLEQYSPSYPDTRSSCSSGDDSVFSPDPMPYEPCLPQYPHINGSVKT
Wee1-like protein kinase 2 (Homo sapiens), sequence (P0C1S8 whole entry, looked up): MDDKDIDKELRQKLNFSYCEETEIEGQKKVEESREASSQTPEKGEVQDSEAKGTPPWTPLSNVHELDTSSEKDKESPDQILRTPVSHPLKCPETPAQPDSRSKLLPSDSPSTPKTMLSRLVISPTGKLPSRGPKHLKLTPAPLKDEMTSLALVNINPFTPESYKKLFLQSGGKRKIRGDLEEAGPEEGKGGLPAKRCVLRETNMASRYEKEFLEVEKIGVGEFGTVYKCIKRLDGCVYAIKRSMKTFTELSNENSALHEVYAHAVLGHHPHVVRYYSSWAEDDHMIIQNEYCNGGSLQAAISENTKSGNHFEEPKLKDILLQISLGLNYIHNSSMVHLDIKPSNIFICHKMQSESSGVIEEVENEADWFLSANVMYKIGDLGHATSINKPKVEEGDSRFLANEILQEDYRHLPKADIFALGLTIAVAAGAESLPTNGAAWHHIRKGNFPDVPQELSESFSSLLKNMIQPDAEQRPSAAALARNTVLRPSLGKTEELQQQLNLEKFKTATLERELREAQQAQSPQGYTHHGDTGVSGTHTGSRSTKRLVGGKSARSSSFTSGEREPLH
Fibroblast growth factor receptor 3, sequence (P22607 23-806 limits assumed): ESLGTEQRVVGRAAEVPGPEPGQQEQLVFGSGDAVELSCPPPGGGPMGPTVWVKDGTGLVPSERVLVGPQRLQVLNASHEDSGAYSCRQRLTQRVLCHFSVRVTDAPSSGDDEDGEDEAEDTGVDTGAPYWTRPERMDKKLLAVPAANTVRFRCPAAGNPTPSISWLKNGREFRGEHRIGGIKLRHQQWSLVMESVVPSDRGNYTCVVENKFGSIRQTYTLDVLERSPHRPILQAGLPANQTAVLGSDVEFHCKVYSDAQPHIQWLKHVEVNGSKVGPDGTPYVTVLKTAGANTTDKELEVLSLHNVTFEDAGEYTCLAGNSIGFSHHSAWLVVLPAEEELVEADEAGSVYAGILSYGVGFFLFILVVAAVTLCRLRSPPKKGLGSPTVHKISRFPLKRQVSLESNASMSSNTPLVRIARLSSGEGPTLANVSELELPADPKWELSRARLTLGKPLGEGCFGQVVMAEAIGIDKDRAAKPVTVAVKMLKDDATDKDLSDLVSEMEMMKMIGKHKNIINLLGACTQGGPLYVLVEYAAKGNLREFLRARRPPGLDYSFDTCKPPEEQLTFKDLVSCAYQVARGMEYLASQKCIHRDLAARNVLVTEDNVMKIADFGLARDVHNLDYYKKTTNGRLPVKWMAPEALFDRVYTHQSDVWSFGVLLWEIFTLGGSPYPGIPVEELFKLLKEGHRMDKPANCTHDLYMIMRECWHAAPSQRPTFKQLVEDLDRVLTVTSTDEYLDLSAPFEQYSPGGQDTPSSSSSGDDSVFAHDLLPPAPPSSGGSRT
Mitogen-activated protein kinase 4 (Homo sapiens), sequence (P31152 whole entry): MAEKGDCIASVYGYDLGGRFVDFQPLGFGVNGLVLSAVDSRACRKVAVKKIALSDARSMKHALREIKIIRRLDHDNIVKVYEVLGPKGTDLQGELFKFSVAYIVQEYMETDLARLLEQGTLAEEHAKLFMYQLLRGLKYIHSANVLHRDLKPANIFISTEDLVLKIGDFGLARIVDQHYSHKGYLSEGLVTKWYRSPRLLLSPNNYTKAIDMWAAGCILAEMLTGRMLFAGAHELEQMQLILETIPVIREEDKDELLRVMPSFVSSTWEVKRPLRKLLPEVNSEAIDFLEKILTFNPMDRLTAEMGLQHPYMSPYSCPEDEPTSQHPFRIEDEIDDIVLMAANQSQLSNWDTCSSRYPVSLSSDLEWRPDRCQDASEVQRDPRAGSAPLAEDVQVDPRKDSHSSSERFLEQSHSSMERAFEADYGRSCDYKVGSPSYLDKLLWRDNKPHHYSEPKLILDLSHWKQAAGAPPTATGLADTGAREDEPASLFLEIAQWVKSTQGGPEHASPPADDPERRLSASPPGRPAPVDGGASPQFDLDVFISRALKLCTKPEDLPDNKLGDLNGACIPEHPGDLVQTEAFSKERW

## COc1cc(N(C)c2ccnc3ccc(C(F)(F)F)cc23)cc(OC)c1OC
[1]
  % binding: 100%

## C=CC(=O)Nc1cc(-n2c(=O)ccc3cnc4ccc(-c5ccc(NS(C)(=O)=O)cc5)cc4c32)ccc1C
[2]; at 1 µM
  % of control: 100%
[2]; at 10 µM
  % of control: 77%
[3]; at 1 µM
  % of control: 100%
[3]; at 10 µM
  % of control: 65%

## N#Cc1cccc(-c2c[nH]c3ncnc(N4CCOCC4)c23)c1
[4]
  % of control: 100%

## CC(C)(O)[C@H](F)CN1Cc2cc(NC(=O)c3cnn4cccnc34)c(N3CCOCC3)cc2C1=O
[5]
  dTM: 2.5 K

## O[C@H]1CC[C@H](Nc2ncc3nc(Nc4c(F)cc(F)cc4F)n([C@H]4CCOC4)c3n2)CC1
[6]
  % of control: 42%
[7]
  % of control: 98%

## CC[C@@H]1[C@H](F)C(=O)N[C@@H]1COc1nccc2cc(C(N)=O)c(OC)cc12 [ZIMLOVISERTIB]
[8]; at 0.01 µM
  % of inhibition: 16.2%
[8]; at 0.04 µM
  % of inhibition: 0.9%
[8]; at 0.2 µM
  % of inhibition: 2.5%
[8]; at 1 µM
  % of inhibition: -1%
[8]; at 5 µM
  % of inhibition: 33%
[9]; at 0.01 µM
  % of inhibition: 11.8%
[9]; at 0.04 µM
  % of inhibition: -10.9%
[9]; at 0.2 µM
  % of inhibition: -1.8%
[9]; at 1 µM
  % of inhibition: 9.6%
[9]; at 5 µM
  % of inhibition: 8.3%

## CCN(CC)CCCCNc1ncc2cc(-c3cc(OC)cc(OC)c3)c(NC(=O)NC(C)(C)C)nc2n1
[10]
  % of control: 100%
